According to paper PMC11876601 (Molecular Systems Biology, 2025):

Legend:
[1] = system: MAP3K5; parameters: method as in Klaeger et al. (2017); settings: lysate 4 cell line mix (Colo205, K-562, MV-4-11, and SK-N-BE(2)), Kinobeads y, ref Klaeger et al. (2017); cited from earlier work
[2] = system: SIK3; parameters: method as in Klaeger et al. (2017); settings: lysate 4 cell line mix (Colo205, K-562, MV-4-11, and SK-N-BE(2)), Kinobeads y, ref Klaeger et al. (2017); cited from earlier work
[3] = system: MAP4K5; parameters: method as in Klaeger et al. (2017); settings: MAP4K5, 4 cell line mix lysate, Kinobeads y, ref Klaeger et al. (2017); cited from earlier work
[4] = target: TTK; parameters: method as in Reinecke et al. (2023); settings: 5 cell line mix lysate, Kinobeads ε, ref Reinecke et al. (2023), cited from earlier work
[5] = target: FRK; parameters: method as in Reinecke et al. (2023); settings: 5 cell line mix lysate, Kinobeads ε, ref Reinecke et al. (2023), cited from earlier work
[6] = target: AXL; parameters: method as in Reinecke et al. (2023); settings: 5 cell line mix lysate, Kinobeads ε, ref Reinecke et al. (2023), cited from earlier work
[7] = system: NUAK2; parameters: method as in Reinecke et al. (2023); settings: NUAK2, 5 cell line mix lysate, Kinobeads ε, ref Reinecke et al. (2023), cited from earlier work
[8] = system: PRKAA2; parameters: method as in Reinecke et al. (2023); settings: PRKAA2, 5 cell line mix lysate, Kinobeads ε, ref Reinecke et al. (2023), cited from earlier work
[9] = target: TANK; settings: 5 cell line mix lysate, Kinobeads ε, ref Reinecke et al. (2023), cited from earlier work
[10] = target: BTK; parameters: method as in Reinecke et al. (2023); settings: 5 cell line mix lysate, Kinobeads ε, ref Reinecke et al. (2023), cited from earlier work
[11] = system: RPS6KA3; parameters: method as in Reinecke et al. (2023); settings: RPS6KA3, 5 cell line mix lysate, Kinobeads ε, ref Reinecke et al. (2023), cited from earlier work
[12] = target: PDGFRB; parameters: method as in Reinecke et al. (2023); settings: 5 cell line mix lysate, Kinobeads ε, ref Reinecke et al. (2023), cited from earlier work
[13] = system: TAOK3; parameters: method as in Reinecke et al. (2023); settings: TAOK3, 5 cell line mix lysate, Kinobeads ε, ref Reinecke et al. (2023), cited from earlier work
[14] = system: PDO UME061; assay: PDO viability assay (CellTiter-Glo, 72 h); type: cell-based; settings: Homo sapiens
Description: Primary patient-derived PDAC organoid (PDO) experiments were performed in the laboratories of Prof. Maximilian Reichert (University Hospital of the TU Munich, Germany, PDO set 1: B250, B535, B678) and Prof. Jens T. Siveke (University Hospital Essen, Germany; PDO set 2: UME008, UME012, UME051, UME053, UME060, UME061). PDOs were generated from surgical resection, EUS-guided fine needle biopsy (EUS-FNB), or ascites (Appendix Table S2). Surgical specimens were first minced with a sterile scalpel and subsequently washed with Anti-Anti solution and washing medium (PDO set 1), or vice versa (PDO set 2; Appendix Table S3). Biopsy samples were directly washed with an Anti-Anti solution and washing medium. Samples were digested using 1 ml of digestion medium at 37 °C while shaking, and the enzymatic reaction was stopped by adding 15 ml of washing medium (Appendix Table S3). […]
For viability assays in PDOs, confluent organoids were removed from medium, and Matrigel was dissolved by adding 200 μl (PDO set 1) or 2 ml (PDO set 2) of Cell Recovery Solution (Corning), and additionally 500 μl of DPBS (PDO set 1 only). […] After 72 h, cell viability was measured using the CellTiter-Glo Luminescent Cell Viability Assay (Promega) diluted 1:5 in the final volume of the well. […]

C[C@]12O[C@H](C[C@]1(O)CO)n1c3ccccc3c3c4c(c5c6ccccc6n2c5c31)CNC4=O [Lestaurtinib]
EC50 [1]: 788 nM
EC50 [2]: 1040 nM

COc1cc(N2CCC(N3CCN(C)CC3)CC2)ccc1Nc1ncc(Cl)c(Nc2ccccc2P(C)(C)=O)n1 [Brigatinib]
Kd ([4]; read-out: KDapp): 629 nM
EC50 [4]: 629 nM
pKDapp [4]: 6.20
Kd ([5]; read-out: KDapp): 53 nM
EC50 [5]: 156 nM
pKDapp [5]: 7.28
Kd ([6]; read-out: KDapp): 635 nM
EC50 [6]: 635 nM
pKDapp [6]: 6.20
EC50 [7]: 88.5 nM
pKDapp [7]: 7.17
Kd ([7]; read-out: KDapp): 68.3 nM
EC50 [8]: 1160 nM
pKDapp [8]: 6.28
Kd ([8]; read-out: KDapp): 527 nM
Kd ([9]; read-out: KDapp): 684 nM
EC50 [9]: 1070 nM
pKDapp [9]: 6.17
Kd ([10]; read-out: KDapp): 1480 nM
EC50 [10]: 3780 nM
pKDapp [10]: 5.83
EC50 [11]: 162 nM
pKDapp [11]: 6.93
Kd ([11]; read-out: KDapp): 118 nM
Kd ([12]; read-out: KDapp): 737 nM
EC50 [12]: 843 nM
pKDapp [12]: 6.13
EC50 [13]: 690 nM
pKDapp [13]: 6.27
Kd ([13]; read-out: KDapp): 534 nM

Nc1ccn([C@@H]2O[C@H](CO)[C@@H](O)C2(F)F)c(=O)n1 [GEM, Gemcitabine]
EC50 ([14]; GEM alone): 5.8 nM
EC50 ([14]; experiment GEM (GEM alone), mean of replicates): 5.78 nM
